Source: patent US7659263B2, “Thienopyrrole compound and use thereof as HCV polymerase inhibitor” (Japan Tobacco Inc., priority 2004, dated 2010)
Where a name gives a salt, the structure may show the parent alone.

Legend:
[1] = target: T1, NS5B 1a (Hepatitis C virus genotype 1a, UniProt P27958); assay: Assay of enzyme (HCV polymerase) inhibitory activity, NS5B 1a; format: biochemical; conditions: HCV polymerase NS5B 1a; [3H]UTP incorporation, 25° C., 90 min
T1 construct: NS5B 1a

[2] = target: T2, NS5B 1b (Hepatitis C virus genotype 1b, UniProt P26663); assay: Assay of enzyme (HCV polymerase) inhibitory activity, NS5B 1b; format: biochemical
T2 construct: a region encoding NS5B (J Virol 1991 March, 65(3), 1105-13, 544 amino acids after deletion of 47 amino acids on the C-terminal); 6 His (C); made in house; host or cells: Escherichia coli
T2 sequence (P26663 2420-2963): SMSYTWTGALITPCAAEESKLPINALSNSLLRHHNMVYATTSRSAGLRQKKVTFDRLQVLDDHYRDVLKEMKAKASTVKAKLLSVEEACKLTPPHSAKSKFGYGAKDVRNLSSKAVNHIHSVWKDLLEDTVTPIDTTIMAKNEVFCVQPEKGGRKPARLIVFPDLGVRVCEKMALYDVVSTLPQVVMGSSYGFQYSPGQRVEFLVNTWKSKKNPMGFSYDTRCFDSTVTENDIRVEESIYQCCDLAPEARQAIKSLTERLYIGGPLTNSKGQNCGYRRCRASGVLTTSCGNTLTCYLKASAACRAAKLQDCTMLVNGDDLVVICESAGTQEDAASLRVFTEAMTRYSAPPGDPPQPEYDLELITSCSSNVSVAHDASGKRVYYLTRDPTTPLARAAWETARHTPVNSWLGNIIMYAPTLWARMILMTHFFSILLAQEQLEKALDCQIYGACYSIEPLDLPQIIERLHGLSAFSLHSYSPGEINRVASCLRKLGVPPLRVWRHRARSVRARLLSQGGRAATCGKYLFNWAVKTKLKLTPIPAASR
Excerpt: The evaluation of the HCV polymerase inhibitory activity of the compound of the present invention is explained in the following. This polymerase is an enzyme coded for by the non-structural protein region called NS5B on the genome RNA of HCV (EMBO J., 15:12-22, 1996).
i) Preparation of enzyme (HCV polymerase)
Using, as a template, a cDNA clone corresponding to the full length genome RNA of HCV BK strain obtained from the blood of a patient with hepatitis C, a region encoding NS5B (J Virol 1991 March, 65(3), 1105-13, 544 amino acids after deletion of 47 amino acids on the C-terminal) was amplified by PCR. The objective gene was prepared by adding a 6 His tag {base pair encoding 6 continuous histidine (His)} to the 3′ end thereof and transformed to Escherichia coli. The Escherichia coli capable of producing the objective protein was cultured. The obtained cells were suspended in a buffer solution and crushed in a microfluidizer. The supernatant was obtained by centrifugation and applied to various column chromatographys {mono-S, Sephacryl S-200 (Pharmacia)}, inclusive of metal chelate chromatography, to give a standard enzyme product.
ii) Synthesis of Substrate RNA
Using a synthetic primer designed based on the sequence of HCV genomic 3′ untranslated region, a DNA fragment (148 bp) containing polyU and 3′X sequence was entirely synthesized and cloned into plasmid pBluescript SK II(+) (Stratagene). The cDNA encoding full length NS5B, which was prepared in i) above, was digested with restriction enzyme KpnI to give a cDNA fragment containing the nucleotide sequence of from the restriction enzyme cleavage site to the termination codon. This cDNA fragment was inserted into the upstream of 3′ untranslated region of the DNA in pBluescript SK II(+) and ligated. The about 450 bp inserted DNA sequence was used as a template in the preparation of substrate RNA. This plasmid was cleaved immediately after the 3′X sequence, linearized and purified by phenol-chloroform treatment and ethanol precipitation to give DNA.
RNA was synthesized (37° C., 3 hr) by run-off method using this purified DNA as a template, a promoter of pBluescript SK II(+), MEGAscript RNA synthesis kit (Ambion) and T7 RNA polymerase. DNase I was added and the mixture was incubated for 1 hr. The template DNA was removed by decomposition to give a crude RNA product. This crude product was treated with phenol-chloroform and purified by ethanol precipitation to give the objective substrate RNA.
This RNA was applied to formaldehyde denaturation agarose gel electrophoresis to confirm the quality thereof and preserved at −80° C. iii) Assay of enzyme (HCV polymerase) inhibitory activity A test substance (compound of the present invention) and a reaction mixture (30 μl) having the following composition were reacted at 25° C. for 90 min.
10% Trichloroacetic acid at 4° C. and 1% sodium pyrophosphate solution (150 μl) were added to this reaction mixture to stop the reaction. The reaction mixture was left standing in ice for 15 min to insolubilize RNA. This RNA was trapped on a glass filter (Whatman GF/C and the like) upon filtration by suction. This filter was washed with a solution containing 1% trichloroacetic acid and 0.1% sodium pyrophosphate, washed with 90% ethanol and dried. A liquid scintillation cocktail (Packard) was added and the radioactivity of RNA synthesized by the enzyme reaction was measured on a liquid scintillation counter.
The HCV polymerase inhibitory activity (IC50) of the compound of the present invention was calculated from the values of radioactivity of the enzyme reaction with and without the 20 test substance. […]

T1 sequence (P27958 2421-3011): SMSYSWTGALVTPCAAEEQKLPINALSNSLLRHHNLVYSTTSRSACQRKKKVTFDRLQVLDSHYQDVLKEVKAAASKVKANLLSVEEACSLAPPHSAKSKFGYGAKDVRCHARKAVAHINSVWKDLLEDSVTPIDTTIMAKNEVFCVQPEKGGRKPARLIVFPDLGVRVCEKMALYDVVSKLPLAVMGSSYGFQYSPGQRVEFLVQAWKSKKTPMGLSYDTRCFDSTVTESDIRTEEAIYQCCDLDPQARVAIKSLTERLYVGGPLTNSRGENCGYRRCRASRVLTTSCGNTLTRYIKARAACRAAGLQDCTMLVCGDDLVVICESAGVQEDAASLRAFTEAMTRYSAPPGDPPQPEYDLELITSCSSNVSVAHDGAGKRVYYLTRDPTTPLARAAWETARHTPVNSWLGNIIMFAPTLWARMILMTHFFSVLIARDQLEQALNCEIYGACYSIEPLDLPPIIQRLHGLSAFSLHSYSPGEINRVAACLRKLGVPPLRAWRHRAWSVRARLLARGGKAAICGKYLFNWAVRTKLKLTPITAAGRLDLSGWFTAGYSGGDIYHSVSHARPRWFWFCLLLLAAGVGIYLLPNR

| SMILES | IC50 [1] | IC50 [2] |
| --- | --- | --- |
| CS(=O)(=O)c1ccc(N2CCOCC2)c(COc2ccc3c(c2)OCCn2c-3c(C3CCCCC3)c3sc(C(=O)O)cc32)c1 [Example 3, 11-cyclohexyl-8-[5-methanesulfonyl-2-(morpholin-4-yl)benzyloxy]-4,5-dihydro-6-oxa-1-thia-3b-azabenzo[e]cyclopenta[a]azulene-2-carboxylic acid] | 10 to 100 nM | < 10 nM |
| CS(=O)(=O)c1ccc(N2CCOCC2)c(COc2ccc3c(c2)OCCn2c-3c(C3CCCCC3)c3sc(C(N)=O)cc32)c1 [Example 4, 11-cyclohexyl-8-[5-methanesulfonyl-2-(morpholin-4-yl)benzyloxy]-4,5-dihydro-6-oxa-1-thia-3b-azabenzo[e]cyclopenta[a]azulene-2-carboxamide] | 10 to 100 nM | < 10 nM |
| O=C(O)c1cc2c(s1)c(C1CCCCC1)c1n2CCN(CCN2CCCCC2)c2ccccc2-1 [Example 8, 11-cyclohexyl-6-[2-(piperidin-1-yl)ethyl]-5,6-dihydro-4H-1-thia-3b,6-diazabenzo[e]cyclopenta[a]azulene-2-carboxylic acid dihydrochloride] | 10 to 100 nM | 10 to 100 nM |
| CC(C)(C)OC(=O)N1CCN(CCN2CCn3c(c(C4CCCCC4)c4sc(C(=O)O)cc43)-c3ccccc32)CC1 [Example 11, 6-[2-(4-tert-butoxycarbonylpiperazin-1-yl)ethyl]-11-cyclohexyl-5,6-dihydro-4H-1-thia-3b,6-diazabenzo[e]cyclopenta[a]azulene-2-carboxylic acid hydrochloride] | 10 to 100 nM | 10 to 100 nM |
| CCN1CCN(C(=O)CN2CCn3c(c(C4CCCCC4)c4sc(C(=O)O)cc43)-c3ccccc32)CC1 [Example 14, 11-cyclohexyl-6-[2-(4-ethylpiperazin-1-yl)-2-oxoethyl]-5,6-dihydro-4H-1-thia-3b,6-diazabenzo[e]cyclopenta[a]azulene-2-carboxylic acid dihydrochloride] | 10 to 100 nM | 10 to 100 nM |
| O=C(O)c1cc2c(s1)c(C1CCCCC1)c1n2CCOc2ccccc2-1 [Example 15, 11-cyclohexyl-4,5-dihydro-6-oxa-1-thia-3b-azabenzo[e]cyclopenta[a]azulene-2-carboxylic acid] | 100 to 1000 nM | 10 to 100 nM |
| O=C(O)c1cc2c(s1)c(C1CCCCC1)c1n2CCOc2cc(OCc3cc(N4CCCC4=O)ccc3N3CCOCC3)ccc2-1 [Example 16, 11-cyclohexyl-8-[2-(morpholin-4-yl)-5-(2-oxopyrrolidin-1-yl)benzyloxy]-4,5-dihydro-6-oxa-1-thia-3b-azabenzo[e]cyclopenta[a]azulene-2-carboxylic acid hydrochloride] | 10 to 100 nM | < 10 nM |
| COC(=O)N1CCCC(Oc2ccc3c(c2)OCCn2c-3c(C3CCCCC3)c3sc(C(=O)O)cc32)C1 (stereo not shown) [Example 17, 11-cyclohexyl-8-(1-methoxycarbonylpiperidin-3-yloxy)-4,5-dihydro-6-oxa-1-thia-3b-azabenzo[e]cyclopenta[a]azulene-2-carboxylic acid] | 10 to 100 nM | 10 to 100 nM |
| CS(=O)(=O)N1CCN(c2ccc(N3CCCC3=O)cc2COc2ccc3c(c2)OCCn2c-3c(C3CCCCC3)c3sc(C(=O)O)cc32)CC1 [Example 18, 11-cyclohexyl-8-[2-(4-methanesulfonylpiperazin-1-yl)-5-(2-oxopyrrolidin-1-yl)benzyloxy]-4,5-dihydro-6-oxa-1-thia-3b-azabenzo[e]cyclopenta[a]azulene-2-carboxylic acid] | < 10 nM | < 10 nM |
| Cc1ccc2c(c1)N(CCN1CCCCC1)CCn1c-2c(C2CCCCC2)c2sc(C(=O)O)cc21 [Example 19, 11-cyclohexyl-8-methyl-6-[2-(piperidin-1-yl)ethyl]-5,6-dihydro-4H-1-thia-3b,6-diazabenzo[e]cyclopenta[a]azulene-2-carboxylic acid dihydrochloride] | 10 to 100 nM | < 10 nM |
| O=C(O)c1cc2c(s1)c(C1CCCCC1)c1n2CCN(CCN2CCCCC2)c2cc(Cl)ccc2-1 [Example 20, 8-chloro-11-cyclohexyl-6-[2-(piperidin-1-yl)ethyl]-5,6-dihydro-4H-1-thia-3b,6-diazabenzo[e]cyclopenta[a]azulene-2-carboxylic acid dihydrochloride] | 10 to 100 nM | 10 to 100 nM |
| O=C(O)c1cc2c(s1)c(C1CCCCC1)c1n2CCN(CCN2CCCCCCC2)c2ccccc2-1 [Example 21, 6-[2-(azocan-1-yl)ethyl]-11-cyclohexyl-5,6-dihydro-4H-1-thia-3b,6-diazabenzo[e]cyclopenta[a]azulene-2-carboxylic acid dihydrochloride] | 10 to 100 nM | < 10 nM |
| CC1CCCN(CCN2CCn3c(c(C4CCCCC4)c4sc(C(=O)O)cc43)-c3ccccc32)C1 (stereo not shown) [Example 22, 11-cyclohexyl-6-[2-(3-methylpiperidin-1-yl)ethyl]-5,6-dihydro-4H-1-thia-3b,6-diazabenzo[e]cyclopenta[a]azulene-2-carboxylic acid dihydrochloride] | 10 to 100 nM | 10 to 100 nM |
| COCC[C@@H]1CCCN(CCN2CCn3c(c(C4CCCCC4)c4sc(C(=O)O)cc43)-c3ccccc32)C1 [Example 23, (S)-11-cyclohexyl-6-{2-[3-(2-methoxyethyl)piperidin-1-yl]ethyl)-5,6-dihydro-4H-1-thia-3b,6-diazabenzo[e]cyclopenta[a]azulene-2-carboxylic acid dihydrochloride] | 10 to 100 nM | 10 to 100 nM |
| O=C(O)c1cc2c(s1)c(C1CCCCC1)c1n2CCN(CCN2CCCOCC2)c2ccccc2-1 [Example 24, 11-cyclohexyl-6-[2-(1,4-oxazepan-4-yl)ethyl]-5,6-dihydro-4H-1-thia-3b,6-diazabenzo[e]cyclopenta[a]azulene-2-carboxylic acid dihydrochloride] | 10 to 100 nM | 10 to 100 nM |
| Cc1ccc2c(c1)N(CCN1CCCCCCC1)CCn1c-2c(C2CCCCC2)c2sc(C(=O)O)cc21 [Example 25, 6-[2-(azocan-1-yl)ethyl]-11-cyclohexyl-8-methyl-5,6-dihydro-4H-1-thia-3b,6-diazabenzo[e]cyclopenta[a]azulene-2-carboxylic acid dihydrochloride] | 10 to 100 nM | < 10 nM |
| Cc1ccc2c(c1)N(CCN1CCCC(C)C1)CCn1c-2c(C2CCCCC2)c2sc(C(=O)O)cc21 (stereo not shown) [Example 26, 11-cyclohexyl-8-methyl-6-[2-(3-methylpiperidin-1-yl)ethyl]-5,6-dihydro-4H-1-thia-3b,6-diazabenzo[e]cyclopenta[a]azulene-2-carboxylic acid dihydrochloride] | 10 to 100 nM | 10 to 100 nM |
| COCC[C@@H]1CCCN(CCN2CCn3c(c(C4CCCCC4)c4sc(C(=O)O)cc43)-c3ccc(C)cc32)C1 [Example 27, (S)-11-cyclohexyl-6-{2-[3-(2-methoxyethyl)piperidin-1-yl]ethyl}-8-methyl-5,6-dihydro-4H-1-thia-3b,6-diazabenzo[e]cyclopenta[a]azulene-2-carboxylic acid dihydrochloride] | 10 to 100 nM | 10 to 100 nM |
| Cc1ccc2c(c1)N(CCN1CCCOCC1)CCn1c-2c(C2CCCCC2)c2sc(C(=O)O)cc21 [Example 28, 11-cyclohexyl-8-methyl-6-[2-(1,4-oxazepan-4-yl)ethyl]-5,6-dihydro-4H-1-thia-3b,6-diazabenzo[e]cyclopenta[a]azulene-2-carboxylic acid dihydrochloride] | 10 to 100 nM | 10 to 100 nM |
| O=C(O)c1cc2c(s1)c(C1CCCCC1)c1n2CCN(CCN2CCCCCCC2)c2cc(Cl)ccc2-1 [Example 29, 6-[2-(azocan-1-yl)ethyl]-8-chloro-11-cyclohexyl-5,6-dihydro-4H-1-thia-3b,6-diazabenzo[e]cyclopenta[a]azulene-2-carboxylic acid dihydrochloride] | 10 to 100 nM | 10 to 100 nM |
